The subject of data set [1] is laser-induced hypertensive primates. Briefly: IOP in laser-induced ocular hypertensive monkeys (lasered MIOP), topical dosing. Type of data set: in vivo, monkey. Conditions: for MIOP IOP % Reduction, 1 hour: 1 hour post-dose; for MIOP IOP % Reduction, 3 hours: 3 hours post-dose; for MIOP IOP % Reduction, 6 hours: 6 hours post-dose. How it is done: Monkey intraocular pressure (MIOP) were obtained from laser-induced hypertensive primates in the manner described in Examples 1 and 4 below at 1, 3, and 6 hours post-dose.
(§1) The hydrochloride salt of Compound II, also known as fasudil hydrochloride or just fasudil, was topically administered to eyes of ocular normotensive and hypertensive monkeys, New Zealand Albino (NZA) and Dutch Belted (DB) rabbits.

Data set [2] has as its system Bulbar Conjunctiva (conjunctival hyperemia). As to the kind of experiment: Guinea pig conjunctival hyperemia model. The format is in vivo. The conditions noted are these: cumulative incidence; percent of eyes scoring +2 or more; scored 1, 2, 3, 4 hours after instillation. On the procedure:
A guinea pig model was used to assess the potential of the compounds to cause conjunctival hyperemia as measured by vasodilation. Compound was instilled and hyperemia was scored at 1, 2, 3, and 4 hours following dosing. Reported above is the cumulative incidence of hyperemia over the 4 hour period. Incidence of hyperemia (Bulbar Conjunctiva) was calculated as the percent of eyes scoring +2 or more, according to the following graded scale: 0 Normal appearance of vessels at limbus and rectus muscle 1 Enlargement of vessels normally visible at limbus and rectus muscle 2 Branching of vessels at limbus, additional vessels visible 3 Additional vessels visible in open bulbar conjunctival areas 4 Diffuse redness in open bulbar conjunctival areas

Data set [3] has as its system ocular normotensive monkey. Briefly: IOP in ocular normotensive monkeys, topical dosing. Type of data set: in vivo, cynomolgus monkey. How it is done:
as §1
The effect of repeated doses of Compound II on the magnitude and duration of IOP reduction was evaluated in ocular normotensive monkeys.

A further data set concerns Dutch Belted (DB) rabbit. As to the kind of experiment: IOP in Dutch Belted rabbits, topical dosing. Type of data set: in vivo. On the procedure: as §1
Compound II (hydrochloride) was administered topically to the eyes of Dutch Belted (DB) rabbits in doses of 75 and 150 μg.

For data set [4], the system named is New Zealand Albino (NZA) rabbit. As to the kind of experiment: IOP in New Zealand Albino rabbits, topical dosing. The format is in vivo. Conditions: four hour dose response. How it is done:
as §1
A dose study similar to that described in Example 2 was conducted with the NZA rabbit. Compound II (hydrochloride) was administered in a topical ocular fashion in doses of 50, 125 and 250 μg.
Other isoquinolinesulfonamides were topically administered to the eyes of New Zealand Albino (NZA) rabbits.
All drugs were administered to eyes in a topical manner at a dose=500 μg (2×25 μl). All compounds were formulated in phosphate buffered saline containing 0.01% benzalkonium chloride, and in all instances N=7.

Take `CC1CN(S(=O)(=O)c2cccc3cnccc23)C(C)CN1` (stereo not shown) [D, 1-(5-isoquinolinesulfonyl)-2,5-dimethylpiperazine]: in data set [1] (dose 500 μg), the “MIOP IOP % Reduction, 1 hour” value stood at 36.3%; the “MIOP IOP % Reduction, 3 hours” value worked out at 32.8%; the “MIOP IOP % Reduction, 6 hours” value was determined as 19.3%. Further, the “IOP lowering effect” value in data set [1] (laser-induced hypertensive primates, compared with the other compounds of Example E) is “markedly superior IOP lowering effect”. Moreover, the “Guinea Pig Hyperemia (Cumulative over 4 hours)” value in data set [2] was 20%.

In the case of `O=S(=O)(c1cccc2c(Cl)nccc12)N1CCNCC1` [1-(1-chloro-5-isoquinolinesulfonyl)-piperazine], in data set [1] (dose 500 μg), the “MIOP IOP % Reduction, 1 hour” value came to 7.9%; the “MIOP IOP % Reduction, 3 hours” value came out at 11.9%; the “MIOP IOP % Reduction, 6 hours” value turned out to be 9.4%. Besides, the “Guinea Pig Hyperemia (Cumulative over 4 hours)” value in data set [2] is on record as 10%.

In the case of `O=S(=O)(c1cccc2cnccc12)N1CCCNCC1` [Fasudil, hexahydro-1-(5-isoquinolinylsulfonyl)-1H-1,4-diazepine], in data set [1] (dose 500 μg), the “MIOP IOP % Reduction, 1 hour” value turned out to be 21.9%. The “MIOP IOP % Reduction, 3 hours” value in data set [1] (dose 500 μg) amounted to 14.6%. The “MIOP IOP % Reduction, 6 hours” value in data set [1] (dose 500 μg) is recorded as 23.4%. The “IOP lowering” value in data set [1] (ocular hypertensive (laser-induced) primates, topical) is on record as “effectively lowered IOP”; in data set [3] (ocular normotensive primates, topical), “effectively lowered IOP”; in the data set with Dutch Belted (DB) rabbit it was “lowered IOP in the DB rabbit; however, the reduction in IOP was not sustained”; in data set [4], “IOP was marketedly lowered below base line”. In data set [3] (ocular normotensive monkeys, total of 900 μg in three doses, ten minutes apart), the “IOP reduction after repeated doses” value is given as “significant IOP reduction”. In addition, in data set [2], the “Guinea Pig Hyperemia (Cumulative over 4 hours)” value was determined as 75%.

As for `CC1CN(S(=O)(=O)c2cccc3cnccc23)CCN1` (stereo not shown) [Example H-7, 1-(5-isoquinolinesulfonyl)-3-methylpiperazine], in data set [1] (dose 1000 μg), the “MIOP IOP % Reduction, 1 hour” value worked out at 30.9%; the “MIOP IOP % Reduction, 3 hours” value came to 20.9%; the “MIOP IOP % Reduction, 6 hours” value amounted to 11.6%. Moreover, in data set [2], the “Guinea Pig Hyperemia (Cumulative over 4 hours)” value is 0%.

Source of the values: patent publication US6403590B1, “Use of certain isoquinolinesulfonyl compounds for the treatment of glaucoma and ocular ischemia” (Alcon Laboratories, Inc., priority 1995, dated 2002).
